Experimental data reported in patent US6525001B1, “Substituted pyrimidine and pyridine herbicides” (Mid-American Commercialization Corporation, priority 1997, dated 2003).

Experiments:
Assay type in all cases: in vivo
Conditions in all cases: PREEMERGENCE
[1] = test system: barnyardgrass (Echinochloa crus-galli); experiment: Test C; set-up: key: 0 was no effect; 100 was complete control
[2] = test system: cocklebur (Xanthium strumarium); experiment: Test C; set-up: key: 0 was no effect; 100 was complete control
[3] = test system: corn (Zea mays); experiment: Test C; set-up: key: 0 was no effect; 100 was complete control
[4] = test system: hairy beggarticks (Bidens pilosa); experiment: Test C; set-up: key: 0 was no effect; 100 was complete control
[5] = test system: ivyleaf morningglory (Ipomoea hederacea); experiment: Test C; set-up: key: 0 was no effect; 100 was complete control
[6] = test system: johnsongrass (Sorghum halepense); experiment: Test C; set-up: key: 0 was no effect; 100 was complete control
[7] = test system: ladysthumb smartweed (Polygonum persicaria); experiment: Test C; set-up: key: 0 was no effect; 100 was complete control
[8] = test system: purple nutsedge (Cyperus rotundus); experiment: Test C; set-up: key: 0 was no effect; 100 was complete control
[9] = test system: velvetleaf (Abutilon theophrasti); experiment: Test C; set-up: key: 0 was no effect; 100 was complete control
[10] = test system: purple nutsedge (Cyperus rotundus); experiment: Test E pre-/postemergence/post directed; set-up: key: 0 is no injury; 100 is complete control
Excerpt: (§1) Seeds, tubers, or plant parts of alexandergrass (Brachiaria plantaginea), annual bluegrass (Poa annua), arrowleaf sida (Sida rhombifolia), barnyardgrass (Echinochloa crus-galli), bermudagrass (Cynodon dactylon), citrus (Citrus sinensis), common chickweed (Stellaria media), common purslane (Portulaca oleracea), common ragweed (Ambrosia elatior), common groundsel (Senecio vulgaris), dallisgrass (Paspalum dilatatum), goosegrass (Eleusine indica), green foxtail (Setaria viridis), guineagrass (Panicum maximum), itchgrass (Rottboellia exaltata), johnson grass (Sorghum halepense), kochia (Kochia scoparia), large crabgrass (Digitaria sanguinalis), leafy spurge (Euphorbia esula), pitted morningglory (Ipomoea lacunosa), purple nutsedge (Cyperus rotundus), quackgrass (Agropyron repens), Russian thistle (Salsola kali), sandbur (Cenchrus echinatus), sourgrass (Trichachne insularis), Spanishneedles (Bidens bipinnata), sugarcane (Saccharum officinarum), surinam grass (Brachiaria decumbens) and tall mallow (Malva sylvestris) were planted into greenhouse pots of flats containing greenhouse planting medium. Plant species were grown grown in separate pots or individual compartments. Preemergence applications were made within one day of planting the seed or plant part. Postemergence applications were applied when the plants were in the two to four leaf stage (three to twenty cm).
(§2) Test chemicals were formulated in a non-phytotoxic solvent mixture which included a surfactant and applied preemergence to the soil surface, postemergence to the plants or as a post directed spray to plants and soil at the base of the target species. Untreated control plants and treated plants were placed in the greenhouse and visually evaluated for injury 13 to 21 days after herbicide application. Plant response ratings, summarized in Table E, are based on a 0 to 100 scale where 0 is no injury and 100 is complete control. A dash (−) response means no test result.

[11] = test system: Spanishneedles (Bidens bipinnata); experiment: Test E pre-/postemergence/post directed
Excerpt: as §1, §2

[12] = test system: alexandergrass (Brachiaria plantaginea); experiment: Test E pre-/postemergence/post directed
Excerpt: as §1, §2

[13] = test system: bermudagrass (Cynodon dactylon); experiment: Test E pre-/postemergence/post directed
Excerpt: as §1, §2

[14] = test system: common ragweed (Ambrosia elatior); experiment: Test E pre-/postemergence/post directed
Excerpt: as §1, §2

[15] = test system: itchgrass (Rottboellia exaltata); experiment: Test E pre-/postemergence/post directed
Excerpt: as §1, §2

[16] = test system: large crabgrass (Digitaria sanguinalis); experiment: Test E pre-/postemergence/post directed
Excerpt: as §1, §2

[17] = test system: pitted morningglory (Ipomoea lacunosa); experiment: Test E pre-/postemergence/post directed
Excerpt: as §1, §2

[18] = test system: sandbur (Cenchrus echinatus); experiment: Test E pre-/postemergence/post directed
Excerpt: as §1, §2

[19] = test system: surinam grass (Brachiaria decumbens); experiment: Test E pre-/postemergence/post directed
Excerpt: as §1, §2

## Cc1cnc(-c2ccc(C(F)(F)F)cc2)nc1C(Cl)c1cccc(C(F)(F)F)c1 (racemic) [Compound 21]
[1]; Rate 35 g/ha
  Plant response rating, Barnyardgrass: 0
[1]; Rate 70 g/ha
  Plant response rating, Barnyardgrass: 0
[1]; Rate 140 g/ha
  Plant response rating, Barnyardgrass: 5
[2]; Rate 35 g/ha
  Plant response rating, Cocklebur: 0
[2]; Rate 70 g/ha
  Plant response rating, Cocklebur: 0
[2]; Rate 140 g/ha
  Plant response rating, Cocklebur: 0
[3]; Rate 35 g/ha
  Plant response rating, Corn: 0
[3]; Rate 70 g/ha
  Plant response rating, Corn: 0
[3]; Rate 140 g/ha
  Plant response rating, Corn: 0
[4]; Rate 35 g/ha
  Plant response rating, H. beggarticks: 0
[4]; Rate 70 g/ha
  Plant response rating, H. beggarticks: 0
[4]; Rate 140 g/ha
  Plant response rating, H. beggarticks: 40
[5]; Rate 35 g/ha
  Plant response rating, I. morningglory: 0
[5]; Rate 70 g/ha
  Plant response rating, I. morningglory: 0
[5]; Rate 140 g/ha
  Plant response rating, I. morningglory: 0
[6]; Rate 35 g/ha
  Plant response rating, Johnsongrass: 0
[6]; Rate 70 g/ha
  Plant response rating, Johnsongrass: 0
[6]; Rate 140 g/ha
  Plant response rating, Johnsongrass: 5
[7]; Rate 35 g/ha
  Plant response rating, Ladysthumb: 0
[7]; Rate 140 g/ha
  Plant response rating, Ladysthumb: 5
[8]; Rate 35 g/ha
  Plant response rating, Purple nutsedge: 0
[8]; Rate 70 g/ha
  Plant response rating, Purple nutsedge: 0
[8]; Rate 140 g/ha
  Plant response rating, Purple nutsedge: 0
[9]; Rate 35 g/ha
  Plant response rating, Velvetleaf: 0
[9]; Rate 70 g/ha
  Plant response rating, Velvetleaf: 50
[9]; Rate 140 g/ha
  Plant response rating, Velvetleaf: 50

## Cc1cnc(-n2cnc(C(F)(F)F)n2)nc1Cc1cccc(C(F)(F)F)c1 [Compound 43]
[1]; Rate 35 g/ha
  Plant response rating, Barnyardgrass: 10
[1]; Rate 70 g/ha
  Plant response rating, Barnyardgrass: 30
[1]; Rate 140 g/ha
  Plant response rating, Barnyardgrass: 50
[2]; Rate 35 g/ha
  Plant response rating, Cocklebur: 0
[3]; Rate 35 g/ha
  Plant response rating, Corn: 0
[3]; Rate 70 g/ha
  Plant response rating, Corn: 30
[3]; Rate 140 g/ha
  Plant response rating, Corn: 55
[4]; Rate 35 g/ha
  Plant response rating, H. beggarticks: 0
[4]; Rate 70 g/ha
  Plant response rating, H. beggarticks: 5
[4]; Rate 140 g/ha
  Plant response rating, H. beggarticks: 100
[5]; Rate 35 g/ha
  Plant response rating, I. morningglory: 20
[5]; Rate 70 g/ha
  Plant response rating, I. morningglory: 100
[5]; Rate 140 g/ha
  Plant response rating, I. morningglory: 100
[6]; Rate 35 g/ha
  Plant response rating, Johnsongrass: 10
[6]; Rate 70 g/ha
  Plant response rating, Johnsongrass: 30
[6]; Rate 140 g/ha
  Plant response rating, Johnsongrass: 30
[8]; Rate 35 g/ha
  Plant response rating, Purple nutsedge: 0
[8]; Rate 70 g/ha
  Plant response rating, Purple nutsedge: 0
[8]; Rate 140 g/ha
  Plant response rating, Purple nutsedge: 0
[9]; Rate 35 g/ha
  Plant response rating, Velvetleaf: 100
[9]; Rate 70 g/ha
  Plant response rating, Velvetleaf: 100
[9]; Rate 140 g/ha
  Plant response rating, Velvetleaf: 100

## CCc1cnc(-n2ccc(C(F)(F)F)n2)nc1Cc1cccc(C(F)(F)F)c1 [Compound 46]
[1]; Rate 35 g/ha
  Plant response rating, Barnyardgrass: 5
[1]; Rate 70 g/ha
  Plant response rating, Barnyardgrass: 10
[1]; Rate 140 g/ha
  Plant response rating, Barnyardgrass: 50
[2]; Rate 35 g/ha
  Plant response rating, Cocklebur: 0
[2]; Rate 70 g/ha
  Plant response rating, Cocklebur: 10
[2]; Rate 140 g/ha
  Plant response rating, Cocklebur: 5
[3]; Rate 35 g/ha
  Plant response rating, Corn: 0
[3]; Rate 70 g/ha
  Plant response rating, Corn: 0
[3]; Rate 140 g/ha
  Plant response rating, Corn: 5
[4]; Rate 35 g/ha
  Plant response rating, H. beggarticks: 0
[4]; Rate 70 g/ha
  Plant response rating, H. beggarticks: 100
[4]; Rate 140 g/ha
  Plant response rating, H. beggarticks: 100
[5]; Rate 35 g/ha
  Plant response rating, I. morningglory: 45
[5]; Rate 70 g/ha
  Plant response rating, I. morningglory: 50
[5]; Rate 140 g/ha
  Plant response rating, I. morningglory: 50
[6]; Rate 35 g/ha
  Plant response rating, Johnsongrass: 5
[6]; Rate 70 g/ha
  Plant response rating, Johnsongrass: 45
[6]; Rate 140 g/ha
  Plant response rating, Johnsongrass: 50
[7]; Rate 35 g/ha
  Plant response rating, Ladysthumb: 25
[7]; Rate 70 g/ha
  Plant response rating, Ladysthumb: 10
[7]; Rate 140 g/ha
  Plant response rating, Ladysthumb: 50
[9]; Rate 35 g/ha
  Plant response rating, Velvetleaf: 50
[9]; Rate 70 g/ha
  Plant response rating, Velvetleaf: 80
[9]; Rate 140 g/ha
  Plant response rating, Velvetleaf: 80
[10]; Rate 32 g/ha
  Plant response rating, Purple nutsedge: 0
[10]; Rate 64 g/ha
  Plant response rating, Purple nutsedge: 0
[10]; Rate 125 g/ha
  Plant response rating, Purple nutsedge: 0
[10]; Rate 250 g/ha
  Plant response rating, Purple nutsedge: 0
[11]; Rate 32 g/ha
  Plant response rating, Spanishneedles: 65
[11]; Rate 64 g/ha
  Plant response rating, Spanishneedles: 85
[11]; Rate 125 g/ha
  Plant response rating, Spanishneedles: 90
[11]; Rate 250 g/ha
  Plant response rating, Spanishneedles: 90
[12]; Rate 125 g/ha
  Plant response rating, Alexandergrass: 60
[12]; Rate 250 g/ha
  Plant response rating, Alexandergrass: 60
[13]; Rate 32 g/ha
  Plant response rating, Bermudagrass: 70
[13]; Rate 64 g/ha
  Plant response rating, Bermudagrass: 98
[14]; Rate 64 g/ha
  Plant response rating, Com. ragweed: 98
[14]; Rate 125 g/ha
  Plant response rating, Com. ragweed: 98
[15]; Rate 125 g/ha
  Plant response rating, Itchgrass: 40
[15]; Rate 250 g/ha
  Plant response rating, Itchgrass: 40
[16]; Rate 32 g/ha
  Plant response rating, Large crabgrass: 90
[16]; Rate 64 g/ha
  Plant response rating, Large crabgrass: 98
[17]; Rate 32 g/ha
  Plant response rating, P. morninglory: 65
[17]; Rate 64 g/ha
  Plant response rating, P. morninglory: 65
[17]; Rate 125 g/ha
  Plant response rating, P. morninglory: 65
[17]; Rate 250 g/ha
  Plant response rating, P. morninglory: 65
[18]; Rate 64 g/ha
  Plant response rating, Sandbur: 10
[18]; Rate 125 g/ha
  Plant response rating, Sandbur: 10
[18]; Rate 250 g/ha
  Plant response rating, Sandbur: 30
[19]; Rate 125 g/ha
  Plant response rating, Surinam grass: 40
[19]; Rate 250 g/ha
  Plant response rating, Surinam grass: 55

## Cc1cnc(-n2ccc(C(F)(F)F)n2)nc1C(=O)c1cccc(OC(F)(F)F)c1 [Compound 66]
[1]; Rate 35 g/ha
  Plant response rating, Barnyardgrass: 0
[1]; Rate 70 g/ha
  Plant response rating, Barnyardgrass: 5
[1]; Rate 140 g/ha
  Plant response rating, Barnyardgrass: 5
[2]; Rate 35 g/ha
  Plant response rating, Cocklebur: 0
[2]; Rate 70 g/ha
  Plant response rating, Cocklebur: 0
[2]; Rate 140 g/ha
  Plant response rating, Cocklebur: 0
[3]; Rate 35 g/ha
  Plant response rating, Corn: 0
[3]; Rate 70 g/ha
  Plant response rating, Corn: 0
[3]; Rate 140 g/ha
  Plant response rating, Corn: 0
[4]; Rate 35 g/ha
  Plant response rating, H. beggarticks: 0
[4]; Rate 70 g/ha
  Plant response rating, H. beggarticks: 0
[4]; Rate 140 g/ha
  Plant response rating, H. beggarticks: 0
[5]; Rate 35 g/ha
  Plant response rating, I. morningglory: 5
[5]; Rate 70 g/ha
  Plant response rating, I. morningglory: 10
[5]; Rate 140 g/ha
  Plant response rating, I. morningglory: 10
[6]; Rate 35 g/ha
  Plant response rating, Johnsongrass: 0
[6]; Rate 70 g/ha
  Plant response rating, Johnsongrass: 5
[6]; Rate 140 g/ha
  Plant response rating, Johnsongrass: 10
[7]; Rate 35 g/ha
  Plant response rating, Ladysthumb: 0
[7]; Rate 140 g/ha
  Plant response rating, Ladysthumb: 70
[8]; Rate 35 g/ha
  Plant response rating, Purple nutsedge: 0
[8]; Rate 70 g/ha
  Plant response rating, Purple nutsedge: 0
[8]; Rate 140 g/ha
  Plant response rating, Purple nutsedge: 0
[9]; Rate 35 g/ha
  Plant response rating, Velvetleaf: 0
[9]; Rate 70 g/ha
  Plant response rating, Velvetleaf: 0
[9]; Rate 140 g/ha
  Plant response rating, Velvetleaf: 0
